Source: the supplement of paper PMC6045584
± gives the standard deviation of the averaged measurements.

Assays:
[1] = compound: CC(=O)NCC(=O)N1[C@@H]2CC[C@H]1c1ccc(Nc3ncc(C(F)(F)F)c(NC4CCC4)n3)cc12; experiment: surviving fraction relative to DMSO-only wells; higher = less growth inhibition; conditions: exposure time: 5 days
In short: (§1)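 Continuous five-day exposure to inhibitors at 0.5, 1, 5, 10, 50, 100, 500 and 1000 nM started 24 hours after log-phase tumour cell lines were seeded at 250–500 cells per well in 384-well plates. Luminescence was read after 10 minutes at room temperature. Viability is given as surviving fraction, meaning CellTiter-Glo luminescence normalised to the median of DMSO-only wells.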

[2] = compound: T1, CC(=O)O[C@H]1C(=O)[C@@]2(C)[C@H]([C@H](OC(=O)c3ccccc3)[C@]3(O)C[C@H](OC(=O)[C@H](O)[C@@H](NC(=O)c4ccccc4)c4ccccc4)C(C)=C1C3(C)C)[C@]1(OC(C)=O)CO[C@@H]1C[C@@H]2O [PACLITAXEL]; experiment: as above; conditions: exposure time: 5 days
In short: as §1

[3] = compound: CC(=O)c1c(C)c2cnc(Nc3ccc(N4CCNCC4)cn3)nc2n(C2CCCC2)c1=O; experiment: as above; conditions: exposure time: 5 days
In short: as §1

[4] = compound: T2, CC[C@@]1(O)C(=O)OCc2c1cc1n(c2=O)Cc2cc3ccccc3nc2-1 [CAMPTOTHECIN]; experiment: as above; conditions: exposure time: 5 days
In short: as §1

[5] = compound: T3, COCC[n+]1c2c(n(Cc3cnccn3)c1C)C(=O)c1ccccc1C2=O [YM155]; experiment: as above; conditions: exposure time: 5 days
In short: as §1

[6] = compound: COc1cc2ncnc(Nc3ccc(F)c(Cl)c3)c2cc1OCCCN1CCOCC1 [GEFITINIB]; experiment: as above; conditions: exposure time: 5 days
In short: as §1

[7] = compound: T4, C[C@]1(O)C[C@@H](c2nc(-c3ccc4ccc(-c5ccccc5)nc4c3)c3c(N)nccn32)C1 [OSI-906]; experiment: as above; conditions: exposure time: 5 days
In short: as §1

[8] = compound: Cc1ccc(-c2cc(C(F)(F)F)nn2-c2ccc(S(N)(=O)=O)cc2)cc1 [CELECOXIB]; experiment: as above; conditions: exposure time: 5 days
In short: as §1

[9] = compound: T5, O=C(O)C1(C(=O)O)CCC1.[NH2-].[NH2-].[Pt+2] [CARBOPLATIN]; experiment: as above; conditions: exposure time: 5 days
In short: as §1

[10] = compound: CC(=O)NCC(=O)N1[C@@H]2CC[C@H]1c1ccc(Nc3ncc(C(F)(F)F)c(NC4CCC4)n3)cc12; experiment: area under dose-response curve of surviving fraction (unscaled, Aref=0) (surviving fraction x log10(nM)); higher = more resistant; conditions: exposure time: 5 days; dose range 0.5-1000 nM
In short: (§2)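 Tumour cell lines in 384-well plates were exposed for five days to eight inhibitor concentrations from 0.5 to 1000 nM. Viability was read by CellTiter-Glo luminescence, normalised to DMSO-only wells, in three screens per line. Dose-response survival curves were fitted to surviving fractions by 3-parameter logistic regression in the drc R package. Area under the curve is the unscaled activity area (Aref = 0) over log10 dose.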

[11] = compound: T1, PACLITAXEL; experiment: as above; conditions: exposure time: 5 days; dose range 0.5-1000 nM
In short: as §2

[12] = compound: CC(=O)c1c(C)c2cnc(Nc3ccc(N4CCNCC4)cn3)nc2n(C2CCCC2)c1=O; experiment: as above; conditions: exposure time: 5 days; dose range 0.5-1000 nM
In short: as §2

[13] = compound: T2, CAMPTOTHECIN; experiment: as above; conditions: exposure time: 5 days; dose range 0.5-1000 nM
In short: as §2

[14] = compound: T3, YM155; experiment: as above; conditions: exposure time: 5 days; dose range 0.5-1000 nM
In short: as §2

[15] = compound: T4, OSI-906; experiment: as above; conditions: exposure time: 5 days; dose range 0.5-1000 nM
In short: as §2

[16] = compound: T5, CARBOPLATIN; experiment: as above; conditions: exposure time: 5 days; dose range 0.5-1000 nM
In short: as §2

Test System: HT1080 SOFT TISSUE
- surviving fraction ([1]; 0.5 nM): 0.998 ± 0.035
- surviving fraction ([1]; 1 nM): 0.983 ± 0.011
- surviving fraction ([1]; 5 nM): 0.964 ± 0.05
- surviving fraction ([1]; 10 nM): 0.961 ± 0.031
- surviving fraction ([1]; 50 nM): 0.66 ± 0.0067
- surviving fraction ([1]; 100 nM): 0.404 ± 0.011
- surviving fraction ([1]; 500 nM): 0.303 ± 0.004
- surviving fraction ([1]; 1000 nM): 0.281 ± 0.0093
- surviving fraction ([2]; 0.5 nM): 0.772 ± 0.034
- surviving fraction ([2]; 1 nM): 0.533 ± 0.0091
- surviving fraction ([2]; 5 nM): 0.133 ± 0.019
- surviving fraction ([2]; 10 nM): 0.0517 ± 0.0035
- surviving fraction ([2]; 50 nM): 0.0427 ± 0.0031
- surviving fraction ([2]; 100 nM): 0.031 ± 0.0017
- surviving fraction ([2]; 500 nM): 0.0293 ± 0.0025
- surviving fraction ([2]; 1000 nM): 0.0317 ± 0.00058
- surviving fraction ([3]; 0.5 nM): 0.997 ± 0.026
- surviving fraction ([3]; 1 nM): 1.04 ± 0.017
- surviving fraction ([3]; 5 nM): 1.05 ± 0.017
- surviving fraction ([3]; 10 nM): 1.03 ± 0.019
- surviving fraction ([3]; 50 nM): 1.022 ± 0.0036
- surviving fraction ([3]; 100 nM): 1 ± 0.041
- surviving fraction ([3]; 500 nM): 0.9707 ± 0.0071
- surviving fraction ([3]; 1000 nM): 0.958 ± 0.024
- surviving fraction ([4]; 0.5 nM): 0.956 ± 0.017
- surviving fraction ([4]; 1 nM): 0.925 ± 0.027
- surviving fraction ([4]; 5 nM): 0.739 ± 0.034
- surviving fraction ([4]; 10 nM): 0.361 ± 0.0046
- surviving fraction ([4]; 50 nM): 0.377 ± 0.014
- surviving fraction ([4]; 100 nM): 0.26 ± 0.022
- surviving fraction ([4]; 500 nM): 0.0953 ± 0.016
- surviving fraction ([4]; 1000 nM): 0.0837 ± 0.0075
- surviving fraction ([5]; 0.5 nM): 1.03 ± 0.021
- surviving fraction ([5]; 1 nM): 0.954 ± 0.035
- surviving fraction ([5]; 5 nM): 0.433 ± 0.0064
- surviving fraction ([5]; 10 nM): 0.237 ± 0.017
- surviving fraction ([5]; 50 nM): 0.063 ± 0.0027
- surviving fraction ([5]; 100 nM): 0.0373 ± 0.0021
- surviving fraction ([5]; 500 nM): 0.0277 ± 0.00058
- surviving fraction ([5]; 1000 nM): 0.0297 ± 0.00058
- surviving fraction ([6]; 0.5 nM): 1.05 ± 0.016
- surviving fraction ([6]; 1 nM): 1.05 ± 0.035
- surviving fraction ([6]; 5 nM): 1.05 ± 0.069
- surviving fraction ([6]; 10 nM): 1.11 ± 0.036
- surviving fraction ([6]; 50 nM): 1.01 ± 0.029
- surviving fraction ([6]; 100 nM): 1.03 ± 0.028
- surviving fraction ([6]; 500 nM): 1.042 ± 0.0056
- surviving fraction ([6]; 1000 nM): 1.01 ± 0.034
- surviving fraction ([7]; 0.5 nM): 1 ± 0.042
- surviving fraction ([7]; 1 nM): 1.02 ± 0.023
- surviving fraction ([7]; 5 nM): 1.02 ± 0.021
- surviving fraction ([7]; 10 nM): 1 ± 0.017
- surviving fraction ([7]; 50 nM): 0.979 ± 0.039
- surviving fraction ([7]; 100 nM): 0.921 ± 0.027
- surviving fraction ([7]; 500 nM): 0.899 ± 0.03
- surviving fraction ([7]; 1000 nM): 0.869 ± 0.057
- surviving fraction ([8]; 0.5 nM): 1.039 ± 0.0011
- surviving fraction ([8]; 1 nM): 1.06 ± 0.011
- surviving fraction ([8]; 5 nM): 1.038 ± 0.0067
- surviving fraction ([8]; 10 nM): 1.05 ± 0.014
- surviving fraction ([8]; 50 nM): 0.995 ± 0.02
- surviving fraction ([8]; 100 nM): 1.011 ± 0.008
- surviving fraction ([8]; 500 nM): 1.02 ± 0.012
- surviving fraction ([8]; 1000 nM): 1 ± 0.021
- surviving fraction ([9]; 0.5 nM): 1.07 ± 0.024
- surviving fraction ([9]; 1 nM): 1.1 ± 0.011
- surviving fraction ([9]; 5 nM): 1.09 ± 0.051
- surviving fraction ([9]; 10 nM): 1.09 ± 0.013
- surviving fraction ([9]; 50 nM): 1.03 ± 0.023
- surviving fraction ([9]; 100 nM): 1.04 ± 0.044
- surviving fraction ([9]; 500 nM): 1.03 ± 0.058
- surviving fraction ([9]; 1000 nM): 1.06 ± 0.062
- area under dose-response curve [10]: 2.39
- area under dose-response curve [11]: 0.5
- area under dose-response curve [12]: 3.28
- area under dose-response curve [13]: 1.51
- area under dose-response curve [14]: 1.04
- area under dose-response curve [15]: 3.17
- area under dose-response curve [16]: 3.51
